Results taken from ChEMBL document CHEMBL1201862, “PubChem BioAssay data set” (2004).
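Test compounds were applied to cells in 96-well plates for 48 hours at 5 doses. Here, GI50 denotes the concentration required for 50% inhibition of growth.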 The source made the active and inactive calls. Cut-off read from the data, not from the text of the source: active = GI50 up to about 1.1 µM and inactive = higher.

Columns and labels:
Assay in all cases: NCI anticancer screen, dose series, 48 h
HCT-15 = system: HCT-15
HOP-62 = system: HOP-62
MDA-MB-435 = system: MDA-MB-435
NCI-H226 = system: NCI-H226
PC-3 = system: PC-3
CAKI-1 = system: CAKI-1
UACC-257 = system: UACC-257
HL-60 = system: HL-60
EKVX = system: EKVX
SK-OV-3 = system: SK-OV-3
NCI/ADR-RES = system: NCI/ADR-RES
IGROV-1 = system: IGROV-1
HT-29 = system: HT-29
A549 = system: A549
NCI-H522 = system: NCI-H522
Malme-3M = system: Malme-3M
BT-549 = system: BT-549
KM12 = system: KM12
Hs-578T = system: Hs-578T
SK-MEL-28 = system: SK-MEL-28

SMILES | GI50 (HCT-15) [µM] | GI50 (HOP-62) | GI50 (MDA-MB-435) | GI50 (NCI-H226) | GI50 (PC-3) | GI50 (CAKI-1) | GI50 (UACC-257) | GI50 (HL-60) | GI50 (EKVX) | GI50 (SK-OV-3) | GI50 (NCI/ADR-RES) | GI50 (IGROV-1) | GI50 (HT-29) | GI50 (A549) | GI50 (NCI-H522) | GI50 (Malme-3M) | GI50 (BT-549) | GI50 (KM12) | GI50 (Hs-578T) | GI50 (SK-MEL-28)
COC(=O)C1=C(C(=O)OC)C2OC1c1cc3ccccc3cc12 | 2.18 | 17.6 µM (inactive) | 7.38 µM (inactive) | 5.15 µM (inactive) | 15.2 µM (inactive) | 2.05 µM (inactive) | 6.32 µM (inactive) | 0.0841 µM (active) | 6.07 µM (inactive) | 18.8 µM (inactive) | 10.8 µM (inactive) | 5.01 µM (inactive) | 6.3 µM (inactive) | 18.7 µM (inactive) | 1.3 µM (inactive) | 2.5 µM (inactive) | 5.47 µM (inactive) | 23.7 µM (inactive) | 18.2 µM (inactive) | 2 µM (inactive)
CCOC(=O)CN1CC(C2=C(O)CN(CC(=O)OCC)C2=O)=CC1=O | > 100 | > 100 µM (inactive) | > 100 µM (inactive) | > 100 µM (inactive) | > 100 µM (inactive) | > 100 µM (inactive) | > 100 µM (inactive) | > 100 µM (inactive) | > 100 µM (inactive) | > 100 µM (inactive) | > 100 µM (inactive) | > 100 µM (inactive) | > 100 µM (inactive) | > 100 µM (inactive) | > 100 µM (inactive) | > 100 µM (inactive) | > 100 µM (inactive) | > 100 µM (inactive) | > 100 µM (inactive) | > 100 µM (inactive)
Clc1ccc(Cl)c(NNc2cc(Cl)ccc2Cl)c1 | 3.61 | > 10 µM (inactive) | 8.09 µM (inactive) | > 10 µM (inactive) | 3.66 µM (inactive) | > 10 µM (inactive) | > 10 µM (inactive) | > 10 µM (inactive) | 4.45 µM (inactive) | 5.79 µM (inactive) | 2.92 µM (inactive) | 4.67 µM (inactive) | > 10 µM (inactive) | 6.67 µM (inactive) | 3.68 µM (inactive) | 3.82 µM (inactive) | 5.19 µM (inactive) | > 10 µM (inactive) | > 10 µM (inactive) | 6.38 µM (inactive)
CCOC(=O)[C@@]1(C)CC(O)C(=O)N1C (stereo not given in full) | > 100 | > 100 µM (inactive) | > 100 µM (inactive) | > 100 µM (inactive) | > 100 µM (inactive) | > 100 µM (inactive) | > 100 µM (inactive) | > 100 µM (inactive) | > 100 µM (inactive) | > 100 µM (inactive) | > 100 µM (inactive) | > 100 µM (inactive) | > 100 µM (inactive) | > 100 µM (inactive) | > 100 µM (inactive) | > 100 µM (inactive) | > 100 µM (inactive) | > 100 µM (inactive) | > 100 µM (inactive) | > 100 µM (inactive)
Cc1[nH]c2ncn3nc(C(Cl)(Cl)Cl)nc3c2c1Cc1ccccc1 | > 100 | > 100 µM (inactive) | > 100 µM (inactive) | > 100 µM (inactive) | > 100 µM (inactive) | > 100 µM (inactive) | > 100 µM (inactive) | > 100 µM (inactive) | > 100 µM (inactive) | > 100 µM (inactive) | > 100 µM (inactive) | > 100 µM (inactive) | > 100 µM (inactive) | > 100 µM (inactive) | > 100 µM (inactive) | > 100 µM (inactive) | > 100 µM (inactive) | > 100 µM (inactive) | > 100 µM (inactive) | > 100 µM (inactive)
Cc1ccc(-n2cnc(C(=N)C#N)c2N)cc1 | > 100 | > 100 µM (inactive) | > 100 µM (inactive) | > 100 µM (inactive) | > 100 µM (inactive) | > 100 µM (inactive) | > 100 µM (inactive) | > 100 µM (inactive) | > 100 µM (inactive) | > 100 µM (inactive) | > 100 µM (inactive) | > 100 µM (inactive) | > 100 µM (inactive) | > 100 µM (inactive) | > 100 µM (inactive) | > 100 µM (inactive) | > 100 µM (inactive) | > 100 µM (inactive) | > 100 µM (inactive) | > 100 µM (inactive)
C=C1C(=O)O[C@@H]2C[C@@]3(C)CCCC(=C)[C@@H]3C[C@H]12.C=C1C(=O)O[C@@H]2C[C@@]3(C)CCC[C@H](C)C3=C[C@H]12 | 1.55 | 2.3 µM (inactive) | 1.54 µM (inactive) | 5.3 µM (inactive) | 3.2 µM (inactive) | 1.69 µM (inactive) | 1.65 µM (inactive) | 1.99 µM (inactive) | 4.78 µM (inactive) | 9.79 µM (inactive) | 1.96 µM (inactive) | 2.72 µM (inactive) | 2.12 µM (inactive) | 5.12 µM (inactive) | 1.38 µM (inactive) | 0.731 µM (active) | 1.45 µM (inactive) | 2.7 µM (inactive) | 2.92 µM (inactive) | 1.78 µM (inactive)
COc1ccc(C(=O)C#Cc2cn(C3CC(O)C(CO)O3)c(=O)[nH]c2=O)cc1 (stereo not given) | > 100 | > 100 µM (inactive) | 56.8 µM (inactive) | 32 µM (inactive) | > 100 µM (inactive) | > 100 µM (inactive) | 94.8 µM (inactive) | > 10 µM (inactive) | > 100 µM (inactive) | > 100 µM (inactive) | 42.6 µM (inactive) | > 100 µM (inactive) | > 100 µM (inactive) | > 100 µM (inactive) | 11.9 µM (inactive) | 10.4 µM (inactive) | 20.2 µM (inactive) | > 100 µM (inactive) | 30.6 µM (inactive) | 20.4 µM (inactive)
COC(=O)C1=C(C)NC(CF)=C(C(=O)OC)C1c1cccc2c(=O)c3ccccc3oc12 (stereo not given) | 4.79 | 11.7 µM (inactive) | 3.15 µM (inactive) | > 100 µM (inactive) | 2.69 µM (inactive) | 11.9 µM (inactive) | 16.5 µM (inactive) | 4.65 µM (inactive) | 19.1 µM (inactive) | 26.5 µM (inactive) | 2.79 µM (inactive) | 2.37 µM (inactive) | 3.58 µM (inactive) | 9.46 µM (inactive) | 6.31 µM (inactive) | 11.2 µM (inactive) | 15.8 µM (inactive) | 5.51 µM (inactive) | 9.62 µM (inactive) | 16 µM (inactive)
Cc1ccc(-c2nc(C)c(C(=O)Nc3ccc(Cl)cc3)s2)cc1 | > 100 | 13.4 µM (inactive) | > 100 µM (inactive) | 20.6 µM (inactive) | 44.8 µM (inactive) | 20 µM (inactive) | > 100 µM (inactive) | > 100 µM (inactive) | 37.8 µM (inactive) | 19 µM (inactive) | 29.2 µM (inactive) | 29.2 µM (inactive) | > 100 µM (inactive) | 61.7 µM (inactive) | 30.5 µM (inactive) | 36.4 µM (inactive) | 13.9 µM (inactive) | > 100 µM (inactive) | 21.8 µM (inactive) | > 100 µM (inactive)
S=C1CC(c2ccccc2)Sc2ccccc2N1 (stereo not given) | 93.3 | 22.8 µM (inactive) | 61.1 µM (inactive) | > 100 µM (inactive) | 6.85 µM (inactive) | 55 µM (inactive) | > 100 µM (inactive) | > 100 µM (inactive) | 72.8 µM (inactive) | 41.6 µM (inactive) | 68.9 µM (inactive) | > 100 µM (inactive) | > 100 µM (inactive) | > 10 µM (inactive) | 31.3 µM (inactive) | 67.1 µM (inactive) | 53 µM (inactive) | 95.3 µM (inactive) | 25.5 µM (inactive) | 51.4 µM (inactive)
CC1(C)CN=C(Nc2cccc(C(F)(F)F)c2)S1 | > 100 | > 100 µM (inactive) | > 100 µM (inactive) | > 100 µM (inactive) | > 100 µM (inactive) | > 100 µM (inactive) | > 100 µM (inactive) | 59.3 µM (inactive) | > 100 µM (inactive) | > 100 µM (inactive) | > 100 µM (inactive) | > 100 µM (inactive) | > 100 µM (inactive) | > 100 µM (inactive) | > 100 µM (inactive) | > 100 µM (inactive) | > 100 µM (inactive) | > 100 µM (inactive) | > 100 µM (inactive) | > 100 µM (inactive)
O=C(NCCN1C(=O)CN=C(c2ccc(Cl)cc2)c2cc(Cl)ccc21)OCc1ccccc1 | 13.4 | 19.8 µM (inactive) | 15.1 µM (inactive) | 15.6 µM (inactive) | 11.5 µM (inactive) | 14.2 µM (inactive) | 15.3 µM (inactive) | 10.1 µM (inactive) | 20.7 µM (inactive) | 52.2 µM (inactive) | 11.9 µM (inactive) | 15.3 µM (inactive) | 11.8 µM (inactive) | 10.6 µM (inactive) | 15.5 µM (inactive) | 16.8 µM (inactive) | 15.6 µM (inactive) | 15.3 µM (inactive) | 17.4 µM (inactive) | 33.7 µM (inactive)
COC(=O)C1(Cc2ccc3c(c2)CCC3)Cc2ccccc2C1O (stereo not given) | 21.5 | 22.9 µM (inactive) | 18.7 µM (inactive) | 17.3 µM (inactive) | 11.5 µM (inactive) | 23.8 µM (inactive) | 15 µM (inactive) | 37.5 µM (inactive) | 22.8 µM (inactive) | 19.7 µM (inactive) | 18.7 µM (inactive) | 21.6 µM (inactive) | 16.7 µM (inactive) | 20.5 µM (inactive) | 15.9 µM (inactive) | 18.1 µM (inactive) | 18.7 µM (inactive) | 22.6 µM (inactive) | 20 µM (inactive) | 16.9 µM (inactive)
